According to publication PMC10108347, “Heterobifunctional Ligase Recruiters Enable pan-Degradation of Inhibitor of Apoptosis Proteins” (Journal of Medicinal Chemistry, 2023):
Values belong to the compound of their own block, whether it stands above or below them.

Key:
cIAP1 (BIRC2) = target: T1, cIAP1 (BIRC2) (Homo sapiens, UniProt Q13490); assay: diaPASEF quantitative proteomics in MM.1S cells: cIAP1 (BIRC2); format: cell-based; settings: 3 h; for cIAP1 level in global proteomics (in words): 100 nM, diaPASEF
T1 construct: endogenous in cells; host or cells: MM.1S
Description: (§1) To analyze the proteome-wide degradation selectivity of hetero-PROTACs 9, 25, and 27, a diaPASEF-based mass spectrometry approach was employed.[54] MM.1S cells were treated with 100 nM PROTACs for 3 h. […] Accordingly, global proteomic plots show the mathematically imputed levels of IAP proteins in treatment groups if the corresponding IAP was detected in the control treatment (see also Experimental Section).
(§2) MM1s cells were treated with DMSO or 0.1 μM of compound for 3 h. The cells were harvested by centrifugation and washed with phosphate-buffered saline before snap-freezing in liquid nitrogen. The cells were lysed by addition of lysis buffer (8 M urea, 50 mM NaCl, 50 mM 4-(2-hydroxyethyl)-1-piperazine-ethanesulfonic acid (EPPS) pH 8.5, protease, and phosphatase inhibitors) and homogenization by bead beating (BioSpec) for three repeats of 30 s at 2400. Bradford assay was used to determine the final protein concentration in the clarified cell lysate. 50 μg of protein for each sample was reduced, alkylated, and precipitated using methanol/chloroform as previously described,[64] and the resulting washed precipitated protein was allowed to air dry. The precipitated protein was resuspended in 4 M urea, 50 mM HEPES pH 7.4, followed by dilution to 1 M urea with the addition of 200 mM EPPS, pH 8. Proteins were first digested with LysC (1:50; enzyme/protein) for 12 h at RT. The LysC digestion was diluted to 0.5 M urea with 200 mM EPPS pH 8, followed by digestion with trypsin (1:50; enzyme/protein) for 6 h at 37 °C. Sample digests were acidified with formic acid to a pH of 2–3 prior to desalting using C18 solid-phase extraction plates (SOLA, Thermo Fisher Scientific). Desalted peptides were dried in a vacuum centrifuge and reconstituted in 0.1% formic acid for LC–MS analysis.
(§3) Data were collected using a TimsTOF Pro2 (Bruker Daltonics, Bremen, Germany) coupled to a nanoElute LC pump (Bruker Daltonics, Bremen, Germany) via a CaptiveSpray nanoelectrospray source. Peptides were separated on a reversed-phase C18 column (25 cm × 75 μm ID, 1.6 μM, IonOpticks, Australia) containing an integrated captive spray emitter. Peptides were separated using a 50 min gradient of 2–30% buffer B (acetonitrile in 0.1% formic acid) with a flow rate of 250 nL/min and column temperature maintained at 50 °C.
(§4) Data-Dependent Acquisition (DDA) was performed in the Parallel Accumulation-Serial Fragmentation (PASEF) mode to determine effective ion mobility windows for downstream diaPASEF data collection.[54] The diaPASEF parameters included 100% duty cycle using accumulation and ramp times of 50 ms each, 1 TIMS-MS scan, and 10 PASEF ramps per acquisition cycle. The TIMS-MS survey scan was acquired between 100–1700 m/z and 1/K0 of 0.7–1.3 V × s/cm^2. Precursors with 1–5 charges were selected, and those that reached an intensity threshold of 20,000 arbitrary units were actively excluded for 0.4 min. The quadrupole isolation width was set to 2 m/z for m/z < 700 and 3 m/z for m/z > 800, with the m/z between 700 and 800 m/z being interpolated linearly. The TIMS elution voltages were calibrated linearly with three points (Agilent ESI-L Tuning Mix Ions; 622, 922, 1222 m/z) to determine the reduced ion mobility coefficients (1/K0). To perform diaPASEF, the precursor distribution in the DDA m/z-ion mobility plane was used to design an acquisition scheme for DIA data collection, which included two windows in each 50 ms diaPASEF scan. […]

XIAP = XIAP (Homo sapiens, UniProt P98170); assay: diaPASEF quantitative proteomics in MM.1S cells: XIAP; format: cell-based; design: endogenous in cells; host or cells: MM.1S; settings: 3 h; for XIAP level in global proteomics (in words): 100 nM, diaPASEF; for logFC XIAP: 0.1 μM, log2 fold change compound vs CTRLs (limma)
Description: as §1, §2, §3
as §4, with “scan. Data was acquired using 16 of these 25 Da precursor double window scans (creating 32 windows), which covered the diagonal scan line for doubly and triply charged precursors, with singly charged precursors able to be excluded by their position in the m/z-ion mobility plane. These precursor isolation windows were defined between 400–1200 m/z and 1/K0 of 0.7–1.3 V × s/cm^2.” for “scan.”

T1 sequence (Q13490 whole entry): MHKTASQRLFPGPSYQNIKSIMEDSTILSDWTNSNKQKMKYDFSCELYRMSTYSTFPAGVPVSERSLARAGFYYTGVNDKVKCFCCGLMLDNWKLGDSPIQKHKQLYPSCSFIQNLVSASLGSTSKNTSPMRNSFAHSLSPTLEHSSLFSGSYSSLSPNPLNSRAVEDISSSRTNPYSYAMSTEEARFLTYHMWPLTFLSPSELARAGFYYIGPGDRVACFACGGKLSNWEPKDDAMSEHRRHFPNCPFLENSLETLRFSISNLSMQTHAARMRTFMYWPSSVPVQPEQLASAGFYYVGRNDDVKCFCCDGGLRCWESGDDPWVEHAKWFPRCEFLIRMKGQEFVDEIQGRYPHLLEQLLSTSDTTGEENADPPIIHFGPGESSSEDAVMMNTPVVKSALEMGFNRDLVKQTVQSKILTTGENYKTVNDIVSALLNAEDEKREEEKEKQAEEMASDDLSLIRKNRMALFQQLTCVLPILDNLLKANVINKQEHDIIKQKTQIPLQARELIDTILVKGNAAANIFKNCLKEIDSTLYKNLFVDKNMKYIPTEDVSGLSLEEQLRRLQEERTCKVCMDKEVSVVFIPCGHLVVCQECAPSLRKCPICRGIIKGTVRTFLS
Chain of XIAP (P98170 whole entry): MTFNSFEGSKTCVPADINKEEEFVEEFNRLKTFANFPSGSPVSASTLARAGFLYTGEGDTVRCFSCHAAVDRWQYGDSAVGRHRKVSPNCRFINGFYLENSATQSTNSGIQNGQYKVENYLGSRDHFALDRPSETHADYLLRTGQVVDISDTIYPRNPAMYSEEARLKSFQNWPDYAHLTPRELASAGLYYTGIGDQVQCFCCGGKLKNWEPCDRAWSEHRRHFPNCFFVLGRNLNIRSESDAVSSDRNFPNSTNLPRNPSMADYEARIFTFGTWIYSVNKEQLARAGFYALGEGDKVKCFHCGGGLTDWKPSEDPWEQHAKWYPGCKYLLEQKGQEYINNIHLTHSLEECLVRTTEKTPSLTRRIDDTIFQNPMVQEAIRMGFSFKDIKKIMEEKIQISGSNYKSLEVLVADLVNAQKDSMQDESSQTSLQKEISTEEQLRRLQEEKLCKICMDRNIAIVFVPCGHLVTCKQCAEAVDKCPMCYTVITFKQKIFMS

SMILES: CN[C@@H](C)C(=O)N[C@@H](C(=O)N1CCC[C@H]1C(=O)N[C@@H]1c2ccccc2C[C@@H]1OCC#CC#CCO[C@H]1Cc2ccccc2[C@H]1NC(=O)[C@@H]1CCCN1C(=O)[C@H](NC(=O)[C@H](C)NC)C1CCCCC1)C1CCCCC1 [AZD5582, reference compound]
cIAP1 level in global proteomics (in words) (cIAP1 (BIRC2)): depleted cIAP1 below the detection level | XIAP level in global proteomics (in words) (XIAP): did not cause XIAP degradation

SMILES: CN[C@@H](C)C(=O)N[C@H](C(=O)N1C[C@@H](Oc2cccc(OCCCCC(=O)N[C@H](C(=O)N3C[C@H](O)C[C@H]3C(=O)N[C@@H](C)c3ccc(-c4scnc4C)cc3)C(C)(C)C)c2)C[C@H]1C(=O)N[C@@H]1CCCc2ccccc21)C1CCCCC1 [PROTAC 9, (2S,4S)-1-((S)-2-Cyclohexyl-2-((S)-2-(methylamino)propanamido)acetyl)-4-(3-((5-(((S)-1-((2S,4R)-4-hydroxy-2-(((S)-1-(4-(4-methylthiazol-5-yl)phenyl)ethyl)carbamoyl)pyrrolidin-1-yl)-3,3-dimethyl-1-oxobutan-2-yl)amino)-5-oxopentyl)oxy)phenoxy)-N-((R)-1,2,3,4-tetrahydronaphthalen-1-yl)pyrrolidine-2-carboxamide]
cIAP1 level in global proteomics (in words) (cIAP1 (BIRC2)): below the detection level | logFC XIAP (XIAP): -1.764 | XIAP level in global proteomics (in words) (XIAP): below the detection level

SMILES: CN[C@@H](C)C(=O)N[C@H](C(=O)N1C[C@@H](Oc2cccc(OCCOCCCCCCOCCCCCCNc3cccc4c3C(=O)N(C3CCC(=O)NC3=O)C4=O)c2)C[C@H]1C(=O)N[C@@H]1CCCc2ccccc21)C1CCCCC1 (stereo partly drawn) [PROTAC 25, (2S,4S)-1-((S)-2-Cyclohexyl-2-((S)-2-(methylamino)propanamido)acetyl)-4-(3-(2-((6-((6-((2-(2,6-dioxopiperidin-3-yl)-1,3-dioxoisoindolin-4-yl)amino)hexyl)oxy)hexyl)oxy)ethoxy)phenoxy)-N-((R)-1,2,3,4-tetrahydronaphthalen-1-yl)pyrrolidine-2-carboxamide]
logFC BIRC2 (cIAP1 (BIRC2); 0.1 μM, log2 fold change compound vs CTRLs (limma)): -2.352 | cIAP1 level in global proteomics (in words) (cIAP1 (BIRC2)): below the detection level | logFC XIAP (XIAP): -3.7 | XIAP level in global proteomics (in words) (XIAP): below the detection level

cIAP1 level in global proteomics (in words) (cIAP1 (BIRC2)): no impact | XIAP level in global proteomics (in words) (XIAP): selective XIAP degradation
SMILES: CN[C@@H](C)C(=O)N[C@H](C(=O)N1C[C@@H](Oc2cccc(OCCCCCCOCCCCCCOCCCCCCNc3cccc4c3C(=O)N(C3CCC(=O)NC3=O)C4=O)c2)C[C@H]1C(=O)N[C@@H]1CCCc2ccccc21)C1CCCCC1 (stereo partly drawn) [PROTAC 27, (2S,4S)-1-((S)-2-Cyclohexyl-2-((S)-2-(methylamino)propanamido)acetyl)-4-(3-((6-((6-((6-((2-(2,6-dioxopiperidin-3-yl)-1,3-dioxoisoindolin-4-yl)amino)hexyl)oxy)hexyl)oxy)hexyl)oxy)phenoxy)-N-((R)-1,2,3,4-tetrahydronaphthalen-1-yl)pyrrolidine-2-carboxamide]
